Data taken from US20230019491A1, “PYRIMIDINE TBK/IKKe INHIBITOR COMPOUNDS AND USES THEREOF” (Merck Patent GmbH, priority 2017, published 2023).
Where a name gives a salt, the structure may show the parent alone.

Key:
IKKε = molecular target: T1, IKKε (Homo sapiens, UniProt Q14164); test: IKKε biochemical assay; conditions: 10 point 1:4 dose response, 30 uM top concentration, 90 min at 25° C., LabChip EZ Reader II; read-out: IKKε_IC50
T1 sequence (Q14164 1-716): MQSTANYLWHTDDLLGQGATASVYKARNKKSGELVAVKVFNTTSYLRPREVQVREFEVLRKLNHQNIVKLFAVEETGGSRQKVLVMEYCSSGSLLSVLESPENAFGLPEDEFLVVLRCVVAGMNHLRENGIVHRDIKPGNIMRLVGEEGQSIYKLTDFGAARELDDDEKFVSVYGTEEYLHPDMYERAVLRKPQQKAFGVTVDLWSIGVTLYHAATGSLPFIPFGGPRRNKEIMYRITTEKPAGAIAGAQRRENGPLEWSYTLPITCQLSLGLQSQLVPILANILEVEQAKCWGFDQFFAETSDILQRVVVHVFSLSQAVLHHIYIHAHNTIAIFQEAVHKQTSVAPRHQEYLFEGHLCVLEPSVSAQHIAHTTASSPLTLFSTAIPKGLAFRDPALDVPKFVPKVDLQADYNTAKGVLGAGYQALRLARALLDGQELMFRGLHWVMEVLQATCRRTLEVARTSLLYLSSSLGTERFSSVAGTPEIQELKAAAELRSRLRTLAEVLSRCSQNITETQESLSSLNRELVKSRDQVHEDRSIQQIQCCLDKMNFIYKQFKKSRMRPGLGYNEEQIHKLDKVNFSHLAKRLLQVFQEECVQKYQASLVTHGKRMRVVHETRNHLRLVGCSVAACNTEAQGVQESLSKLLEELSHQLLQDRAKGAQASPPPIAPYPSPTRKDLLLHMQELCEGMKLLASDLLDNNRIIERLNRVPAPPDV
Description: (§1) Test compounds were transferred into Labcyte polypropylene 384 well plates (P055-25) and diluted to 3 mM using DMSO. […] 100 uM of a reference compound (1 uM final high concentration). Backfilling was performed if necessary so that all wells contain 1% DMSO final:
(§2) add 75 nl DMSO/well into columns 1, 2 and 24 using Labcyte Echo. add 75 nl 1.0 mM staurosporine/well into column 23 using Labcyte Echo (10 uM final) add 4.5 ul enzyme/well using multidrop dispenser add 3 ul substrate/well using multidrop dispenser incubate at 25° C. for 90 min. add 7.5 ul 2× stop buffer read on labchip ez reader II using IKKε.
(§3) Raw data files were opened in the Caliper LabChip Reviewer program (Version 3.0.265.0 SP2) and peak assignments were adjusted to reflect “substrate first” with the software's post-run analysis options. A spline-fit baseline was applied using the software's analysis algorithm.

TBK1 = molecular target: T2, TBK1 (Homo sapiens, UniProt Q9UHD2); test: TBK biochemical assay; conditions: 10 point 1:4 dose response, 30 uM top concentration, 90 min at 25° C., LabChip EZ Reader II; read-out: TBK1_IC50
T2 sequence (Q9UHD2 1-729): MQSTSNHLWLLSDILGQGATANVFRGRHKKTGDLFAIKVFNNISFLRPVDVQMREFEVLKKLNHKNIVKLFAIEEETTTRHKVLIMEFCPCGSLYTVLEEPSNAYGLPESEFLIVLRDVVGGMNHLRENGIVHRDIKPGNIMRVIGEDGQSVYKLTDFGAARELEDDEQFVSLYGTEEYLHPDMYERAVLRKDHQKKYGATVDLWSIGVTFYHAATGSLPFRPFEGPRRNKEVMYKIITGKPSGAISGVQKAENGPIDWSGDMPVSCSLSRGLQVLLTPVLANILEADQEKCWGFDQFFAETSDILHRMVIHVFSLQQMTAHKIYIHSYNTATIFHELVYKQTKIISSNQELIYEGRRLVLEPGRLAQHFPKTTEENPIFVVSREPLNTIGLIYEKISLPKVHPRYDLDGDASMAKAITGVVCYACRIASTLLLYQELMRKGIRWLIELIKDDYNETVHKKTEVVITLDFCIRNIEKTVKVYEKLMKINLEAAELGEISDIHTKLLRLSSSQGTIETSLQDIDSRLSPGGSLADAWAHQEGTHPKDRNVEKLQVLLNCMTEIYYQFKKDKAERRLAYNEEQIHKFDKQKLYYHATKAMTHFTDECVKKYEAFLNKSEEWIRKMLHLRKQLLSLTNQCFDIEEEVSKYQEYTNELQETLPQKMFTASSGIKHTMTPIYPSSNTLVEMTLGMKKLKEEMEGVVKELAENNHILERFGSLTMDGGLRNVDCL
Description: as §1
as §2, with “C. in Heidolph incubator” for “C.”, “buffer using multidrop dispenser” for “buffer”, “TBK1.job” for “IKKε.”
as §3

| IC50 (IKKε) | IC50 (TBK1) | Structure (SMILES) |
| --- | --- | --- |
| < 100 nM | < 100 nM | COc1nc(Nc2nccc(-c3ccc(OC4CCOCC4)c(C#N)c3)n2)ccc1N1CCN(C)CC1 [Example 33, 5-(2-(6-methoxy-5-(4-methylpiperazin-1-yl)pyridin-2-ylamino)pyrimidin-4-yl)-2-(tetrahydro-2H-pyran-4-yloxy)benzonitrile] |
| < 100 nM | < 100 nM | COc1nc(Nc2nccc(-c3ccc(OC4CCOCC4)c(C#N)c3)n2)ccc1N(C)CCN(C)C [Example 34, 5-[2-[(5-[[2-(dimethylamino)ethyl](methyl)amino]-6-methoxypyridin-2-yl)amino]pyrimidin-4-yl]-2-(oxan-4-yloxy)benzonitrile hydrochloride] |
| < 100 nM | < 100 nM | COc1nc(Nc2nccc(-c3ccc(OC4CCOCC4)c(C#N)c3)n2)ccc1N(C)CC(=O)N(C)C [Example 35, 2-[[6-([4-[3-cyano-4-(oxan-4-yloxy)phenyl]pyrimidin-2-yl]amino)-2-methoxypyridin-3-yl](methyl)amino]-N,N-dimethylacetamide hydrochloride] |
| < 100 nM | < 100 nM | COc1nc(Nc2nccc(-c3ccc(OC4CCOCC4)c(C#N)c3)n2)ccc1N1C[C@@H](C)N(C)[C@@H](C)C1 [Example 36, 5-[2-([6-methoxy-5-[cis-3,4,5-trimethylpiperazin-1-yl]pyridin-2-yl]amino)pyrimidin-4-yl]-2-(oxan-4-yloxy)benzonitrile] |
| < 100 nM | < 100 nM | COc1nc(Nc2nccc(-c3ccc(OC4CCOCC4)c(C#N)c3)n2)ccc1N1C[C@@H](C)O[C@@H](C)C1 [Example 37, 5-[2-([5-[cis-2,6-dimethylmorpholin-4-yl]-6-methoxypyridin-2-yl]amino)pyrimidin-4-yl]-2-(oxan-4-yloxy)benzonitrile] |
| < 100 nM | < 100 nM | COc1nc(Nc2nccc(-c3ccc(OC4CCOCC4)c(C#N)c3)n2)ccc1N1C[C@@H](C)N(C2COC2)[C@@H](C)C1 [Example 38, 5-[2-([5-[cis-3,5-dimethyl-4-(oxetan-3-yl)piperazin-1-yl]-6-methoxypyridin-2-yl]amino)pyrimidin-4-yl]-2-(oxan-4-yloxy)benzonitrile] |
| < 100 nM | < 100 nM | COc1nc(Nc2nccc(-c3ccc(OC4CCOCC4)c(C#N)c3)n2)ccc1C1CCN(C)CC1 [Example 40, 5-(2-[[6-methoxy-5-(1-methylpiperidin-4-yl)pyridin-2-yl]amino]pyrimidin-4-yl)-2-(oxan-4-yloxy)benzonitrile] |
| < 100 nM | < 100 nM | COc1nc(Nc2nccc(-c3ccc(OC4CCOCC4)c(C#N)c3)n2)ccc1CNC1CCN(C)CC1 [Example 41, 5-[2-[(6-methoxy-5-[[(1-methylpiperidin-4-yl)amino]methyl]pyridin-2-yl)amino]pyrimidin-4-yl]-2-(oxan-4-yloxy)benzonitrile hydrochloride] |
| < 100 nM | < 100 nM | COc1nc(Nc2nccc(-c3ccc(OC4CCOCC4)c(C#N)c3)n2)ccc1C1CCN(C)C1 (stereo not shown) [Example 42, 5-(2-[[6-methoxy-5-(1-methylpyrrolidin-3-yl)pyridin-2-yl]amino]pyrimidin-4-yl)-2-(oxan-4-yloxy)benzonitrile] |
| < 100 nM | < 100 nM | COc1nc(Nc2nccc(-c3ccc(OC4CCOCC4)c(C#N)c3)n2)ccc1C1CCN(C)CC1F (stereo not shown) [Example 43, 5-(2-[[5-(3-fluoro-1-methylpiperidin-4-yl)-6-methoxypyridin-2-yl]amino]pyrimidin-4-yl)-2-(oxan-4-yloxy)benzonitrile] |
| > 5000 nM | 1000 to 5000 nM | COc1nc(Nc2nccc(-c3cc(C#N)c(OC4CCOCC4)cn3)n2)ccc1N1CCN(C)CC1 [Example 44, 2-(2-[[6-methoxy-5-(4-methylpiperazin-1-yl)pyridin-2-yl]amino]pyrimidin-4-yl)-5-(oxan-4-yloxy)pyridine-4-carbonitrile hydrochloride] |
| 1000 to 5000 nM | > 5000 nM | COc1nc(Nc2nccc(-c3cc(C#N)c(OC4CCOCC4)cn3)n2)ccc1C1CCN(C)CC1 [Example 45, 2-(2-[[6-methoxy-5-(1-methylpiperidin-4-yl)pyridin-2-yl]amino]pyrimidin-4-yl)-5-(oxan-4-yloxy)pyridine-4-carbonitrile] |
| < 100 nM | < 100 nM | COc1nc(Nc2nccc(-c3ccc(OC4CCOCC4)c(C#N)n3)n2)ccc1C1CCN(C)CC1 [Example 46, 6-(2-[[6-methoxy-5-(1-methylpiperidin-4-yl)pyridin-2-yl]amino]pyrimidin-4-yl)-3-(oxan-4-yloxy)pyridine-2-carbonitrile] |
| 100 to 1000 nM | < 100 nM | COc1cc(C(=O)N(C)C)ncc1Nc1nccc(-c2ccc(OC3CCOCC3)c(C#N)c2)n1 [Example 47, 5-([4-[3-cyano-4-(oxan-4-yloxy)phenyl]pyrimidin-2-yl]amino)-4-methoxy-N,N-dimethylpyridine-2-carboxamide] |
| < 100 nM | < 100 nM | COc1nc(C(=O)N(C)C)ccc1Nc1nccc(-c2ccc(OC3CCOCC3)c(C#N)c2)n1 [Example 48, 5-([4-[3-cyano-4-(oxan-4-yloxy)phenyl]pyrimidin-2-yl]amino)-6-methoxy-N,N-dimethylpyridine-2-carboxamide] |
| 100 to 1000 nM | 100 to 1000 nM | COc1cc(Nc2nccc(-c3ccc(OC4CCOCC4)c(C#N)c3)n2)ncc1C(=O)N(C)C [Example 49, 6-([4-[3-cyano-4-(oxan-4-yloxy)phenyl]pyrimidin-2-yl]amino)-4-methoxy-N,N-dimethylpyridine-3-carboxamide] |
| < 100 nM | < 100 nM | COc1cc(Nc2nccc(-c3ccc(OC4CCOCC4)c(C#N)c3)n2)cnc1C(=O)N(C)C [Example 50, 5-([4-[3-cyano-4-(oxan-4-yloxy)phenyl]pyrimidin-2-yl]amino)-3-methoxy-N,N-dimethylpyridine-2-carboxamide] |
| > 5000 nM | > 5000 nM | COc1cc(Nc2nccc(-c3cc(C#N)c(OC4CCOCC4)cn3)n2)ncc1C(=O)N(C)C [Example 51, 6-([4-[4-cyano-5-(oxan-4-yloxy)pyridin-2-yl]pyrimidin-2-yl]amino)-4-methoxy-N,N-dimethylpyridine-3-carboxamide] |
| 1000 to 5000 nM | 1000 to 5000 nM | COc1cc(Nc2nccc(-c3cc(C#N)c(OC4CCOCC4)cn3)n2)cnc1C(=O)N(C)C [Example 52, 5-([4-[4-cyano-5-(oxan-4-yloxy)pyridin-2-yl]pyrimidin-2-yl]amino)-3-methoxy-N,N-dimethylpyridine-2-carboxamide] |
| 100 to 1000 nM | 100 to 1000 nM | COc1cc(Nc2nccc(-c3ccc(OC4CCOCC4)c(C#N)c3)n2)ncc1N1CCN(C)CC1 [Example 53, 5-(2-[[4-methoxy-5-(4-methylpiperazin-1-yl)pyridin-2-yl]amino]pyrimidin-4-yl)-2-(oxan-4-yloxy)benzonitrile hydrochloride] |
